IC50 data for 52 compounds are collected here from patent publication US20090047246A1, “NOVEL INHIBITORS OF HEPATITIS C VIRUS REPLICATION” (InterMune, Inc., priority 2007, published 2009).

T1 sequence (P26663 1027-1657): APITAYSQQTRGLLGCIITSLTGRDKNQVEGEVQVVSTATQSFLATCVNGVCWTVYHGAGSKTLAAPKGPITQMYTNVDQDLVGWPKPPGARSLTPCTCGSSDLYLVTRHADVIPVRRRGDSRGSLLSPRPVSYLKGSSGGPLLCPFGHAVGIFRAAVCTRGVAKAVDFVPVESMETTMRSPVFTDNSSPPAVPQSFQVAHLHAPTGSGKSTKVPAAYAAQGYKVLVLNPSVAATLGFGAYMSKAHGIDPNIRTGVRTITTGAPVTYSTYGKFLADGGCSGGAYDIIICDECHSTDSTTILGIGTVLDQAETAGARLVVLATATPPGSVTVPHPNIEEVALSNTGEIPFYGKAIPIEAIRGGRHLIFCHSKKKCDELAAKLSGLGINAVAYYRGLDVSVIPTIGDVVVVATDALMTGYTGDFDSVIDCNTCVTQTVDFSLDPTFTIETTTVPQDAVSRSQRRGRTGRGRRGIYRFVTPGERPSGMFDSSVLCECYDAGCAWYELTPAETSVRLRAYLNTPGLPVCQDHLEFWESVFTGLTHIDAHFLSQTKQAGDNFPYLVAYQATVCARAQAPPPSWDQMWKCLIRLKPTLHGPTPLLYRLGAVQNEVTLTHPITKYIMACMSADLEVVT

The first assay addresses T1, HCV NS3 helicase (Hepatitis C virus genotype 1b, UniProt P26663).
T1 construct: full-length NS3 (1-631), purified at Array BioPharma
Briefly: HCV Helicase Prompt FRET Assay (Example A). The following applies: HCV NS3 helicase; tables do not say whether Example A or Example B assay; read-out: IC50 Activity. It is filed as biochemical. In a few lines:
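Full-length NS3 (1-631), 5 or 6 nM, preincubated 5 min with compound, then unwinds 50 nM FAM/BHQ-1 duplex substrate with 250 nM capture strand and 300 μM ATP in 25 mM MOPS pH 7.0, 1.5 mM MgCl2, 0.005% Triton X-100, 2% DMSO. Fluorescence (485/535 nm) followed ~30 min at room temperature; IC50 from initial rates by 4- or 5-parameter fit.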
For orientation: IC50 means the concentration that inhibits the measured activity by half. As to `O=C(O)Cc1c(Cc2csc3ccc(Cl)cc23)n(Cc2ccccc2)c2cc(OCc3ccccc3)ccc12` [Example 366], the IC50 is less than 10 µM.

Consider `O=C(O)Cc1cn(-c2ccc(N(CCO)Cc3ccccc3)cc2)c2ccccc12` [Example 168], for which the IC50 was 10 to 50 µM.

Take `CN(c1cccc(F)c1)c1cccc(Cn2cc(CC(=O)O)c3ccccc32)c1` [Example 521]: the IC50 is less than 10 µM.

With `O=C(O)Cc1cn(-c2ccc(-c3cccc(Cl)c3)cc2)c2ccccc12` [Example 145], the IC50 is less than 10 µM.

In the case of `CC(C)c1ccc(Cn2c(C(=O)NCc3ccc(Cl)cc3)c(CC(=O)O)c3ccccc32)cc1` [Example 450], the IC50 is less than 10 µM.

On to `Cc1cc([N+](=O)[O-])ccc1-n1cc(C(C(=O)O)c2ccccc2)c2cc(Br)ccc21` (stereo not shown) [Example 388], for which the IC50 is less than 10 µM.

Take `O=C(O)Cc1cn(Cc2ccc(Oc3ccc(F)c(F)c3)cc2)c2ccccc12` [Example 505]: the IC50 was less than 10 µM.

Turning to `CCOC(=O)Cc1cn(Cc2ccc(Oc3cc(C(F)(F)F)cc(C(F)(F)F)c3)cc2)c2ccccc12` [Example 517], the IC50 lay within 10 to 50 µM.

Consider `CN(Cc1cccc(F)c1)c1ccc(-n2cc(CC(=O)O)c3ccccc32)cc1` [Example 178], for which the IC50 is less than 10 µM.

On to `COc1cccc(Oc2cccc(Cn3cc(CC(=O)O)c4ccccc43)c2)c1OC` [Example 488], for which the IC50 is less than 10 µM.

`O=C(O)Cc1cn(-c2ccc(N(Cc3ccccc3)Cc3ccccc3)cc2)c2ccccc12` [Example 169]: the IC50 was less than 10 µM.

For `O=S(=O)(NCc1ccc2c(c1)c(Cc1nn[nH]n1)cn2Cc1csc2ccc(Cl)cc12)c1ccccc1` [Example 210], the IC50 is less than 10 µM.

With `O=C(O)Cc1c(C(=O)Cc2ccc(-c3ccccc3)cc2)[nH]c2ccccc12` [Example 249], the half-maximal inhibitory concentration (IC50) fell in the range of 10 to 50 µM.

Turning to `CCOc1cccc(-c2cccc(C(=O)c3[nH]c4ccccc4c3CC(=O)O)c2)c1` [Example 226], the IC50 fell in the range of 10 to 50 µM.

As for `O=C(O)Cc1c(Cc2ccc(-c3ccccc3C(F)(F)F)cc2)[nH]c2ccccc12` [Example 285], the IC50 is less than 10 µM.

`O=C(O)Cc1cn(Cc2cccc(Oc3ccccc3F)c2)c2ccccc12` [Example 472]: the IC50 is less than 10 µM.

In the case of `CC(C)c1ccc(Cn2c(C(=O)N3CCNCC3)c(CC(=O)O)c3cc(Br)ccc32)cc1` [Example 430], the IC50 was more than 50 µM.

`COc1cccc(Oc2ccc(Cn3cc(CC(=O)O)c4ccccc43)cc2)c1` [Example 499]: the IC50 is 10 to 50 µM.

As to `CC(C)c1ccc(Cn2c(C(=O)N3CCCC3)c(CC(=O)O)c3cc(Br)ccc32)cc1` [Example 431], the IC50 is 10 to 50 µM.

As for `CC(C)CNC(=O)Cc1cn(Cc2cccc(OCc3ccccc3)c2)c2ccc(OCc3ccccc3)cc12` [Example 187], the IC50 was 10 to 50 µM.

As to `O=C(O)Cc1c(C(=O)c2ccc(-c3ccccc3)cc2)n(Cc2ccccc2)c2ccccc12` [Example 219], the IC50 is less than 10 µM.

Take `CCOC(=O)C(F)(F)c1cn(-c2ccc([N+](=O)[O-])cc2C)c2ccc(Br)cc12` [Example 383]: the IC50 was 10 to 50 µM.

Consider `O=C(O)Cc1cn(Cc2csc3ccc(Cl)cc23)c2ccc(Br)cc12` [Example 100], for which the IC50 fell in the range of 10 to 50 µM.

For `O=C(O)Cc1c(Cc2cccc(-c3cccc(CO)c3)c2)[nH]c2ccccc12` [Example 300], the IC50 is less than 10 µM.

For the compound `CCN(CC)C(=O)C(=O)c1cn(-c2ccc([N+](=O)[O-])cc2C)c2ccc(Br)cc12` [Example 385], the IC50 was more than 50 µM.

As for `O=C(O)Cc1c[nH]c2c(Oc3ccc([N+](=O)[O-])cc3)cccc12` [Example 355], the IC50 was more than 50 µM.

In the case of `NC(=O)c1ccc(-c2ccc(C(=O)c3[nH]c4ccccc4c3CC(=O)O)cc2)cc1` [Example 265], the IC50 was 10 to 50 µM.

In the case of `O=C(O)Cc1c(C(=O)c2ccc(-c3ccccc3Cl)cc2)[nH]c2ccc(Br)cc12` [Example 275], the IC50 was less than 10 µM.

For `Cc1cc(-c2cccc(Cn3cc(CC(=O)O)c4cc(OCc5ccccc5)ccc43)c2)on1` [Example 124], the IC50 fell in the range of 10 to 50 µM.

On to `C=CCn1c(Cc2csc3ccc(Cl)cc23)c(CC(=O)O)c2ccc(OCc3ccccc3)cc21` [Example 367], for which the IC50 was less than 10 µM.

As for `Cn1c(Cc2csc3ccc(Cl)cc23)c(CC(=O)O)c2ccc(OCc3ccccc3)cc21` [Example 368], the IC50 is less than 10 µM.

Take `CC(C)c1ccc(Cn2c(C(=O)Nc3cccc(S(C)(=O)=O)c3)c(CC(=O)O)c3ccccc32)cc1` [Example 460]: the IC50 is less than 10 µM.

For `Cc1ccc(-c2ccc(C(=O)c3[nH]c4ccccc4c3CC(=O)O)cc2)cc1C` [Example 262], the 50% inhibitory concentration (IC50) fell in the range of 10 to 50 µM.

Regarding `CC(C)c1ccc(Cn2c(C(=O)NCc3ccc(C(F)(F)F)cc3)c(CC(=O)O)c3ccccc32)cc1` [Example 455], the IC50 is less than 10 µM.

In the case of `O=C(O)Cc1cn(Cc2cccc(-c3cn[nH]c3)c2)c2ccc(OCc3ccccc3)cc12` [Example 131], the IC50 was less than 10 µM.

Regarding `CC(=O)Nc1cccc(-c2ccc(Cc3[nH]c4ccccc4c3CC(=O)O)cc2)c1` [Example 293], the IC50 was 10 to 50 µM.

With `COC(=O)C(NC(=O)c1c[nH]cn1)c1cn(Cc2ccc(C(C)C)cc2)c2ccccc12` (stereo not shown) [Example 421], the IC50 was more than 50 µM.

With `CC(C)c1ccc(Cn2c(C(=O)NCc3ccc(S(N)(=O)=O)cc3)c(CC(=O)O)c3ccccc32)cc1` [Example 442], the IC50 was in the range of 10 to 50 µM.

Turning to `O=C(O)Cc1c(C(=O)Cc2ccccc2)n(Cc2ccccc2)c2ccccc12` [Example 258], the IC50 is 10 to 50 µM.

Turning to `O=C(O)Cc1cn(Cc2ccc(Oc3ccccc3Cl)cc2)c2ccccc12` [Example 496], the IC50 was less than 10 µM.

The assay is the same for the next values; noted with them: Table 21, compounds made using Scheme 28; read-out: IC50 Activity.
On to `CN(c1ccc(Cn2cc(CC(=O)O)c3ccccc32)cc1)c1cccc(F)c1F` [Example 568], for which the IC50 was less than 10 µM.

In the case of `COc1ccc(N(C)c2ccc(Cn3cc(CC(=O)O)c4ccccc43)cc2)cc1OC` [Example 579], the half-maximal inhibitory concentration (IC50) lay within 10 to 50 µM.

Staying with this assay, now noted: Table 31, compounds made using Schemes 38-45; read-out: IC50 Activity.
For `Nc1cc(-c2ccc3c(CC(=O)O)cn(Cc4csc5ccc(Cl)cc45)c3c2)nc(N)n1` [Example 629], the IC50 was less than 10 µM.

Take `Cc1ccc(N)cc1-c1ccc2c(CC(=O)O)cn(Cc3csc4ccc(Cl)cc34)c2c1` [Example 627]: the IC50 is less than 10 µM.

For `Nc1nc(-c2ccc3c(CC(=O)O)cn(Cc4csc5ccc(Cl)cc45)c3c2)ncc1F` [Example 633], the IC50 was in the range of 10 to 50 µM.

The assay is the same for the next values; noted with them: Table 32, compounds made using Schemes 46-49; read-out: IC50 Activity.
`NC(=O)c1sccc1-c1ccc2c(CC(=O)O)cn(Cc3csc4ccc(Cl)cc34)c2c1` [Example 661]: the IC50 fell in the range of 10 to 50 µM.

Still in this assay, the particulars now being: Table 33, compounds made using Scheme 50; read-out: IC50 Activity.
On to `O=C(O)Cc1cn(Cc2csc3ccc(Cl)cc23)c2cc(-c3ccc4nn[nH]c4c3)ccc12` [Example 669], for which the IC50 was 10 to 50 µM.

The assay is the same for the next values; noted with them: Table 34, compounds made using Schemes 51-52; read-out: IC50 Activity.
Consider `Cc1cc([N+](=O)[O-])ccc1-n1cc(C(NC(=O)C2CCCN2)C(=O)O)c2ccccc21` (stereo not shown) [Example 672], for which the 50% inhibitory concentration (IC50) is more than 50 µM.

Staying with this assay, now noted: Table 35, compounds made using Scheme 53; read-out: IC50 Activity.
For `Nc1cc(N)cc(-c2ccc3c(CC(=O)O)cn(Cc4cccc(-c5cccc(Cl)c5)c4)c3c2)c1` [Example 709], the IC50 lay in the range of 10 to 50 µM.

The assay is the same for the next values; noted with them: Table 36, compounds made using Scheme 54; read-out: IC50 Activity.
Take `Cc1sc2ccc(Cl)cc2c1Cn1cc(CC(=O)O)c2ccccc21` [Example 790]: the 50% inhibitory concentration (IC50) was more than 50 µM.

Consider `Nc1cc(N)cc(-c2ccc3c(CC(=O)O)cn(Cc4csc5cc(Cl)ccc45)c3c2)c1` [Example 728], for which the IC50 was less than 10 µM.

The same assay, now with this note: Table 37, compounds made using Scheme 55; read-out: IC50 Activity.
With `NC(=O)c1cccc(-c2ccc3c(CC(=O)O)cn(Cc4csc5ccc(Cl)cc45)c3c2)c1` [Example 763], the IC50 lay within 10 to 50 µM.
